The target in series [1] is T1, PI-3 kinase γ (Homo sapiens, UniProt P48736). Put plainly: PI3Kγ inhibitory activity, PI3-kinase HTRF assay (inhibition ratio). Format: biochemical. As to conditions: 0.5 h, compound at 50 μmol/L. A digest of the protocol: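 Human PI3Kγ was preincubated 10 min with compound and PIP2 substrate, then reacted 30 min at room temperature with ATP (40 μmol/L in the added solution); EDTA/biotin-PIP3 quenched. HTRF 665/620 nm ratio read after 18 h, normalized to no-compound (100%) and no-enzyme (0%) controls, gave % inhibition at 50 or 10 μmol/L compound.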
Background: Time-resolved FRET reads energy transfer from a long-lived donor to a nearby acceptor.

Series [2] concerns the target T1, PI-3 kinase γ. In words: PI3Kγ inhibitory activity (Ki value). Format: biochemical. As to conditions: test ATP concentration 10 μmol/L. Here is the method: The PI3Kγ inhibitory activity (Ki value) of a compound was evaluated according to the following procedure:
5 μL of a compound solution containing 10% DMSO and 200 μmol/L of a compound was changed to 5 μL of a compound solution containing 10% DMSO and either 200, 64, 20, 6.4, 2, 0.64, or 0.20 μmol/L of the compound (optionally, this is diluted to a lower concentration). Using a method similar to the method for measuring PI3Kγ inhibitory activity, inhibition ratios were measured in the presence of the compound at 50, 16, 5, 1.6, 0.5, 0.16, and 0.05 μmol/L (optionally, a lower concentration). Then an IC50 value was calculated by a logistic approximation method or the linear regression method using two concentrations that across 50% inhibition. Separately, the ATP concentration in the reaction solution (40 μmol/L ATP, 10 mmol/L MgCl2, 5 mmol/L DTT) at the time of the start of a reaction in the absence of the compound was changed to 80, 40, 20, 10, 5, 2.5, 1.25, or 0.625 μmol/L. Then, HTRF ratios were measured by a similar method. The value obtained by subtracting the HTRF ratio at each ATP concentration from the HTRF ratio in the absence of PI-3 kinase γ was defined as the value obtained by multiplying reaction rate (v) at each ATP concentration with a constant. The Michaelis-Menten constant Km was then calculated by the Lineweaver-Burk plot method. The Ki value of a compound was calculated by the following formula.
Ki=IC50 value/(1+10 μmol/L (test ATP concentration)/Km(μmol/L))

A short description of series [3]: Metabolic stability test, pooled human liver microsome. Type of series: in vitro ADME. The settings on record: 2 μmol/L compound; human liver microsome 0.5 mg protein/mL, NADPH, 37° C. Here is the method: After a subject compound was reacted for a certain time using a commercially available pooled human liver microsome, a reacted sample and an unreacted sample are compared to calculate a survival ratio, and then the degree of metabolism in the liver was evaluated.
0.2 mL of a buffer solution (50 mmol/L of Tris-HCl in pH 7.4, 150 mmol/L of potassium chloride, and 10 mmol/L of magnesium chloride) containing a human liver microsome of 0.5 mg protein/mL was reacted in the presence of 1 mmol/L NADPH at 37° C. for 0 or 30 minutes (oxidative reaction). After reacting, 50 μL of the reaction solution was added to 100 μL of a solution of methanol/acetonitrile (1/1 (v/v)), mixed, and then centrifuged at 3000 rpm for 15 minutes. The test compound in the supernatant was quantitated with LC/MS/MS. The amount of the compound at a reaction time of 0 minute was defined as 100% and, based on that, the percentage of the test compound remained after reacting for 30 minutes was calculated.

These results are taken from patent US20110172217A1, “RING-FUSED MORPHOLINE DERIVATIVE HAVING PI3K-INHIBITING ACTIVITY” (Shionogi & Co., Ltd., priority 2008, published 2011).

T1 sequence (P48736 whole entry): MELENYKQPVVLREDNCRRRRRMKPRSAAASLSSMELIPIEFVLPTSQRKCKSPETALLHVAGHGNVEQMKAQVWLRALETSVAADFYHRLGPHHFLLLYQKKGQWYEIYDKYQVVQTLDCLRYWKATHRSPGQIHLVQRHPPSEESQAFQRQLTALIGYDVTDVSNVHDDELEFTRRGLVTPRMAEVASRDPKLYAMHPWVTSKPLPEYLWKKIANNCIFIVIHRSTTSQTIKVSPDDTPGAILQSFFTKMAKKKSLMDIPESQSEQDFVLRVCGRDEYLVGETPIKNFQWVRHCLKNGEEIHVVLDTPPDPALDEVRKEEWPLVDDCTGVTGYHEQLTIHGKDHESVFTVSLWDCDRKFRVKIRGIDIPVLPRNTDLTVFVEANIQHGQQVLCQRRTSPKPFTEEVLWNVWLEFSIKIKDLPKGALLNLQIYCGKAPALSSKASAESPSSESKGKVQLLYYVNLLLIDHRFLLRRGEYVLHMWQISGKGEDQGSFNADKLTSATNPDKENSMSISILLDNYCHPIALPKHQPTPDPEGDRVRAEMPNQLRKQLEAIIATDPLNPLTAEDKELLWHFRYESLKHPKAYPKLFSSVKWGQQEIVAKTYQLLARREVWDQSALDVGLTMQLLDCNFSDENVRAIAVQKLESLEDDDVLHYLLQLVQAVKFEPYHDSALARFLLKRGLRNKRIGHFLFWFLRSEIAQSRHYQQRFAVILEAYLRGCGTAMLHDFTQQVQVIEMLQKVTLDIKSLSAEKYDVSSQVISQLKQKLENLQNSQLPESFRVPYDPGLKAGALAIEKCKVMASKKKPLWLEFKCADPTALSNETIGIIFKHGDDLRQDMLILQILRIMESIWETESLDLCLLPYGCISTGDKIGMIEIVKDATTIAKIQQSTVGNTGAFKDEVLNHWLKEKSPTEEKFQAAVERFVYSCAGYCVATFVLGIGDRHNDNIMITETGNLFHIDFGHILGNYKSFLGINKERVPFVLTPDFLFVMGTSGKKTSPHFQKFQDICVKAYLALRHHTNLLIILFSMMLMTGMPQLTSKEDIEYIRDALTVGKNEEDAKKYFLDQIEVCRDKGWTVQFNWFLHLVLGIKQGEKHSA

On to `O=C(O)c1ccccc1Nc1ccc2c(n1)N(C(=O)Nc1ccccc1)CCO2` [Compound I-145], for which the inhibition at 50 µM on PI-3 kinase γ [1] was found to be 81%. This molecule also registered a Ki at PI-3 kinase γ [2] of 44 nM. Besides, the “percentage of test compound remained after reacting for 30 minutes” value in series [3] is given as 88.4%.

Consider `O=C(O)COc1cccc(Nc2ccc3c(n2)N(C(=O)Nc2ccccc2)CCO3)c1` [Compound I-240], for which the inhibition at 50 µM on PI-3 kinase γ [1] is not below 95%. Besides, the Ki on PI-3 kinase γ [2] turned out to be 48 nM. The “percentage of test compound remained after reacting for 30 minutes” value in series [3] came out at 89.9%.

The term inhibition denotes how much of the control response was suppressed. In general, Ki refers to a measure of affinity in units of concentration, obtained from inhibition or displacement. Lower therefore signals higher affinity.
